Assay results reported in patent US20260374739A1, “SMALL MOLECULAR WEIGHT CHEMICAL COMPOUND TO ANTAGONIZE EPH-EPHRIN TETRAMERIZATION AND INHIBIT BIDIRECTIONAL SIGNALING” (THE BOARD OF REGENTS OF THE UNIVERSITY OF TEXAS SYSTEM, priority 2022, published 2026).
Several values for one entry are separate records, joined by “and”; a condition that tells them apart may be missing. Equal values may be shown once. Read-outs that look alike come from different tables or passages of the source.

Assays:
[1] = in vitro plasma stability; type: in vitro ADME; conditions: mouse plasma; for plasma stability: free base or salt
Method: FIG. 46 depicts tests of A20 and A20-I free base and salt forms for in vitro plasma stability. Compounds were provided to the UT Southwestern PK Core facility and tested for stability when incubated with mouse plasma.
To examine the drug-like nature of the disclosed compounds, tests for solubility was conducted.

EphB4-Fc with EB2-His = target: T1, EphB4-Fc with EB2-His (Mus musculus, UniProt P54761); test: Alpha assay EphB4-EB2; type: binding; conditions: for antagonism of EphB4-EB2 interaction: Alpha, ELISA, pulldown
T1 construct: soluble EphB ectodomains conjugated to Fc from R&D Systems; mouse EB2-His residues 18-232; purchased R&D Systems (EphB-Fc); Sino Biologicals (EphrinB-His)
T1 sequence (P54761 16-539 limits assumed): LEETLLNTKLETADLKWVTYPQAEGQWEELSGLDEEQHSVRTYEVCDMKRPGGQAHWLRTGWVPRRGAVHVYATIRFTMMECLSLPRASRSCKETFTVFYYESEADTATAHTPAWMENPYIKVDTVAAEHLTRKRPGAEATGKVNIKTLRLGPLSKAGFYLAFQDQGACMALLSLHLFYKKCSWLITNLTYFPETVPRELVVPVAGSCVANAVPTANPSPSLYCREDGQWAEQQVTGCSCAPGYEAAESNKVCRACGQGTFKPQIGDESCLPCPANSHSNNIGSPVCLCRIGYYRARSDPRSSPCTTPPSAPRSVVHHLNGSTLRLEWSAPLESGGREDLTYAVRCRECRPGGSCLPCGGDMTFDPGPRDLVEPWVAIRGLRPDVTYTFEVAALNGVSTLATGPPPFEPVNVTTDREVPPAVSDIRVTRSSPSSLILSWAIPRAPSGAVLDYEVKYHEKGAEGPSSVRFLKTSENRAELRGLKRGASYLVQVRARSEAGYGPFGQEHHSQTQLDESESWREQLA
Method: FIG. 5D depicts results from an alpha assay using EphB2-Fc or EphB4-Fc with EB2-His and increasing A20 concentrations to calculate IC50 determination (~10 μM, similar to that found in FIG. 5C).
Protein interaction assays were developed using soluble EphB ectodomains conjugated to Fc from R&D Systems (e.g., rat EphB1-Fc residues 18-538, which is 99.4% identical to human) and EphrinB ectodomains conjugated to His from Sino Biologicals (e.g., mouse EB2-His residues 18-232, which is 97.7% identical to human). Titrating concentrations of the EphB1-Fc ectodomain (or unconjugated Fc protein as negative control) was added with titrating amounts of the three different EphrinB ectodomains (EB1-His, EB2-His, or EB3-His) with 125 ng each of the Protein A donor, anti-6×-His acceptor beads, 2% DMSO, and 1× HiBlock buffer (all from PerkinElmer) in 384 well plates, and after 3 hr incubation at RT were read in an Envision Multilabel Reader 2102. […] No signal above background (<1,500) was detected for wells that contained an Fc control protein and the EB-His proteins or just the EphB1-Fc protein and no EB-His protein.
A20, E13, and other compounds from the top 32 hits were then characterized in pulldown assays. EphB1-Fc was immobilized onto Protein A agarose beads, then mixed with compounds and the soluble EB2-His ectodomain for 1 hr at RT, after which protein complexes were washed and then bound EB2 was detected by immunoblot using anti-His antibodies.

[2] = pharmacokinetics, single IP injection; type: in vivo, mouse; design: spinal cord AUC0-t / plasma AUC0-t / brain AUC0-t / liver AUC0-t: unit not given here; conditions: for biodistribution: IP, mice; for plasma AUC0-t: 24 hr; for Cmax / Tmax: mouse; for Cmax: ip, 20 mg/kg
Method: Further studies were conducted as in vivo experiments to evaluate the effect of A20 when injected into the mouse. To formulate the compound for intraperitoneal (IP) injection, A20 was tested for solubility in various buffers, pH conditions, and with cyclodextrins (e.g. Captisol). The formulation was prepared by first dissolving A20 powder in DMSO and followed by mixing with sunflower seed oil (SSO) prior to administration (in 6% DMSO/94% SSO). […] PK profiling experiments were then conducted with A20 to determine its absorption, distribution, metabolism, and excretion (ADME) properties. Mice were given a single IP injection of 20 mg/kg A20 and after 10, 30, 90, 180, 360, 960, 1440 min, three animals per time point were sacrificed and tissue was collected and subjected to mass spectrometry.
A study was conducted with A20 salt dissolved solely in PBS and injected at 20 mg/kg to match the previously described study of the free-base. […] The results from the brain, spinal cord, and liver tissues are particularly outstanding and indicate that significant levels of A20 salt remain even after the final collection at 24 hr time point.

[3] = tested on: DH neurons in the spinal cord; test: dorsal horn neuron activation (Tom+) after Zymosan; type: in vivo, mouse; conditions: PO
Source text: In this example, an in-house method to count and quantify/analyze Tom+ neurons (see Example 23) in the dorsal horn (DH) of the spinal cord is used to track the effect of an inflammatory insult (subcutaneous injection of CFA into the left hind paw). As described above in Example 23, we initially dissected perfusion-fixed spinal cords and then cut in the transverse plane 50 μm thick serial sections throughout the entire length of the lumbar cord of each animal using a vibratome aiming to capture all sections. As serial sections are cut, they are placed into 10 section bins (500 μm spinal cord per bin) and a total of 12 bins are collected spanning 6 mm total spinal cord length. […] Focusing in on this “sweet spot” of 4 bins, the additional sections were mounted and analyzed (aiming for at least 12 sections from these 4 bins, 3 per bin) to increase total data to analyze.
In another example, 307 Axioscan imaged lumbar spinal cord sections from the “sweet spots” of eight+/+wild-type mice subjected to Zymosan pain model and oral dosing of either vehicle (n=3), 3511-I (2×HCl, n=3), or BQPB4 (3×HCl, n=2) were analyzed. […] There was also a trend towards lower overall Tom+ ratios in the 3511-I or BQPB4 treated mice, though the numbers of mice analyzed here were too low to reveal significance.

Oc1c(I)cc(CN2CCOCC2)c2cccnc12 [Compound 7, 7-iodo-5-(morpholinomethyl)quinolin-8-ol]
plasma half-life longer than A20 [1]: 3-5 times | plasma stability [1]: superior stability

COc1ccccc1N1CCN(Cc2cc(Br)c(O)c3ncccc23)CC1 [Compound 70, 7-bromo-5-((4-(2-methoxyphenyl)piperazin-1-yl)methyl)quinolin-8-ol]
antagonism of EphB4-EB2 interaction (EphB4-Fc with EB2-His): very little if any effect on the EphB4-EB2 interaction

Oc1c(Br)cc(CN2CCOCC2)c2cccnc12 [Compound 5, 7-bromo-5-(morpholinomethyl)quinolin-8-ol]
plasma stability [1]: quite stable | IC50 (EphB4-Fc with EB2-His; EphB4-EB2): > 150 µM | biodistribution [2]: distributes to plasma, brain, and spinal cord | brain AUC0-t ([2]; free base, IP 20 mg/kg): 6,684 | spinal cord AUC0-t ([2]; free base, IP 20 mg/kg): 4,928 | plasma AUC0-t ([2]; free base, IP 20 mg/kg): 14,636 | Cmax ([2]; brain, free base, IP 20 mg/kg, read-out: brain Cmax): 104 ng/mL and 323 nM | Tmax ([2]; brain, free base, IP 20 mg/kg, read-out: brain time of Cmax (converted)): 10 min | Cmax ([2]; plasma, free base, IP 20 mg/kg, DMSO/SSO, read-out: plasma Cmax): 214 ng/mL | Cmax ([2]; plasma, free base, IP 20 mg/kg, read-out: plasma Cmax): 665 nM | Tmax ([2]; plasma, free base, IP 20 mg/kg, read-out: plasma time of Cmax (converted)): 10 min | Cmax ([2]; spinal cord, free base, IP 20 mg/kg, read-out: spinal cord Cmax): 88 ng/mL and 273 nM

Oc1ccc(CN2CCN(Cc3ccc(Br)cc3)CC2)c2cccnc12 [Compound 42, 5-((4-(4-bromobenzyl)piperazin-1-yl)methyl)quinolin-8-ol]
biodistribution ([2]; listed as QPB4-Bn): significantly high levels of compound reach intended tissues (i.e., brain, spinal cord, liver, skin) and persist at high concentrations during the 24 hr period

COc1ccccc1N1CCN(Cc2cc(I)c(O)c3ncccc23)CC1 [Compound 71, 7-iodo-5-((4-(2-methoxyphenyl)piperazin-1-yl)methyl)quinolin-8-ol]
ratio of Tom+ DH neurons [3]: significantly lower ratio of Tom+ neurons compared to the vehicle treated animals

Oc1c(Br)cc(CN2CCOCC2)c2cccnc12 [Compound 6, 4-((7-bromo-8-hydroxyquinolin-1-ium-5-yl)methyl)morpholin-4-ium chloride]
Cmax ([2]; brain, salt in PBS, IP 20 mg/kg, read-out: brain Cmax): 7.03 µM and 2790 ng/mL | Cmax ([2]; liver, salt in PBS, IP 20 mg/kg, read-out: liver Cmax): 22600 ng/mL and 57 µM | Cmax ([2]; plasma, salt in PBS, IP 20 mg/kg, read-out: plasma Cmax): 2880 ng/mL and 7.27 µM | Cmax ([2]; spinal cord, salt in PBS, IP 20 mg/kg, read-out: spinal cord Cmax): 3310 ng/mL and 8.35 µM | brain AUC0-t ([2]; salt in PBS, IP 20 mg/kg): 136,933 | brain time of Cmax ([2]; salt in PBS, IP 20 mg/kg): 10 min | liver AUC0-t ([2]; salt in PBS, IP 20 mg/kg): 1,363,490 | plasma time of Cmax ([2]; salt in PBS, IP 20 mg/kg): 10 min | spinal cord AUC0-t ([2]; salt in PBS, IP 20 mg/kg): 86,044 | plasma AUC0-t ([2]; salt in PBS, IP 20 mg/kg): 81,039 | brain AUC0-t increase over the free-base ([2]; salt vs free-base): > 20 fold | brain Cmax increase over the free-base ([2]; salt vs free-base): > 26 fold | plasma AUC0-t increase over the free-base ([2]; salt vs free-base): > 5.5 fold | plasma Cmax increase over the free-base ([2]; salt vs free-base): > 13 fold | spinal cord AUC0-t increase over the free-base ([2]; salt vs free-base): > 17 fold | spinal cord Cmax increase over the free-base ([2]; salt vs free-base): > 37 fold

Oc1c(Cl)cc(CN2CCOCC2)c2cccnc12 [Compound 3, 7-chloro-5-(morpholinomethyl)quinolin-8-ol]
antagonism of EphB4-EB2 interaction (EphB4-Fc with EB2-His): very little if any effect on the EphB4-EB2 interaction

Oc1c(Br)cc(CN2CCN(c3ccc(Br)cc3)CC2)c2cccnc12 [Compound 28, 7-bromo-5-((4-(4-bromophenyl)piperazin-1-yl)methyl)quinolin-8-ol]
ratio of Tom+ DH neurons [3]: significantly lower ratio of Tom+ neurons compared to the vehicle treated animals
